Test results taken from BindingDB's records for doi:10.1111/cbdd.12095 (Universite Lille-Nord de France, 2013).

Molecular target: Cannabinoid receptor 2 (Homo sapiens, UniProt P34972)
Assay: Competition Binding Assay
From the text: Competitive binding assay using cannabinoid receptors.

Chain of Cannabinoid receptor 2 (P34972 whole entry): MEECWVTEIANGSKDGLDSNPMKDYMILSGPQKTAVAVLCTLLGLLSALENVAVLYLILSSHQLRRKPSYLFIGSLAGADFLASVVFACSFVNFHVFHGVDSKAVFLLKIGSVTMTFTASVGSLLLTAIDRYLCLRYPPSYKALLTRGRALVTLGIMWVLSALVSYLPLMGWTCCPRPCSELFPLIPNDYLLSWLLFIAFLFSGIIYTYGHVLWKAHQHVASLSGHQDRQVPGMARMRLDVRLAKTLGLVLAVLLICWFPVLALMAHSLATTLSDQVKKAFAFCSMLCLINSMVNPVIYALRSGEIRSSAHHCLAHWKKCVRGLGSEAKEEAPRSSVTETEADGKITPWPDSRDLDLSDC

Going from `C#CN1CCC2=C(C1)c1c(O)cc(C(C)C(C)CCCCC)cc1OC2(C)C` (stereo not drawn) [CB2 Inhibitor, 1] to `CCCn1c(SCC(=O)NCC2COc3ccccc3O2)nc2sc3c(c2c1=O)CCC3` (stereo not drawn) [CB2 Inhibitor, 12], the Ki rises from 0.0023 µM to 60.9 µM (26000-fold).

Compared with `Cc1cc(C)c(CNC(=O)c2cc3c(C)nn(Cc4ccc(F)cc4)c3s2)c(=O)[nH]1` [CB2 Inhibitor, 2], `CC1=CC(C(=O)CN2C(=O)NC(C)(c3ccc(F)cc3)C2=O)=C(C)C1CCc1cccs1` (stereo not drawn) [CB2 Inhibitor, 11] is 260-fold higher in Ki: 0.143 µM for the first, 36.9 µM for the second.

First: CC1N(C)c2ccc(P(=O)(c3ccccc3)c3ccccc3)cc2C1(C)C (stereo not drawn) [CB2 Inhibitor, 3]
Second: CCCC(=NNC(=O)C1CC1(c1cccc(C)c1)c1cccc(C)c1)c1ccc(OC)cc1 (stereo not drawn) [CB2 Inhibitor, 10]
The Ki of the first is 27-fold lower: 0.54 µM for the first, 14.7 µM for the second. The first binds more tightly here.

Going from `Cc1cc(C(=O)COc2ccccc2C(N)=O)c(C)n1CCC1=CCCCC1` [CB2 Inhibitor, 4] to `O=C(CCC(=O)N1CCC(n2c(=O)[nH]c3ccccc32)CC1)c1ccc2c(c1)CCCC2` [CB2 Inhibitor, 8], the Ki rises from 0.96 µM to 8.83 µM (9.2-fold).

First: COc1ccc(CN2CCCn3c4c(c5cc(C)ccc53)CCCC42)cc1O (stereo not drawn) [CB2 Inhibitor, 5]
Second: CC1CCCN(Cc2cc(-c3ccc4c(c3)OCO4)ccc2OCC(=O)NCc2ccccc2F)C1 (stereo not drawn) [CB2 Inhibitor, 6]
The Ki of the first is 1.9-fold lower: 2.36 µM for the first, 4.44 µM for the second. The first binds more tightly here.

Going from `c1ccc2c(c1)CCCC2Nc1nc(CN2CCCCC2)nc2sc3c(c12)CCCC3` (stereo not drawn) [CB2 Inhibitor, 7] to `CN(C)C(CNC(=O)C1(Cc2ccccc2)CCCCC1)c1cccs1` (stereo not drawn) [CB2 Inhibitor, 13], the Ki rises from 4.78 µM to 71.4 µM (15-fold).

`CCC(CC)S(=O)(=O)c1cccc(-c2nnc(SCCN(C)C)n2C2CCCCCC2)c1` [CB2 Inhibitor, 9] was tested, and the Ki was 9.27 µM.
